What was measured:
SH-SY5Y cell line [1] = experiment: Inhibition of reactive oxygen species generation (CM-H2DCFDA) after MPP+ or rotenone; type: cell-based; details: 10 µM compound, then MPP+ (2 mM) or rotenone (2 µM) for 24 hours
Description: It is known that reactive oxygen species are generated by inhibition of mitochondria, activation of NOX enzyme, and the like when MPP+ or rotenone is administered to a cell line. Since the reactive oxygen species generated at this time react with the CM-H2DCFDA reagent to be fluorescent, the reactive oxygen species can be indirectly quantified.
Specifically, the SH-SY5Y cell line was treated with Compound 1aaa (Compound 1, 10 µM), apocynin (5 µM), or allopurinol (50 µM), and then with MPP+ (2 mM) or rotenone (2 µM) for 24 hours. The effect of each compound to inhibit the generation of reactive oxygen species is illustrated in FIGS. 2 and 3 as a relative percentage to that of the control group.

SH-SY5Y cell line [2] = experiment: Cell viability (MTT assay) after MPP+ or rotenone; type: cell-based; details: 0.5 µM compound, then MPP+ (2 mM) or rotenone (2 µM) for 24 hours
Description: Specifically, the SH-SY5Y cell line was treated with 0.5 µM of Compound 1aaa (Compound 1), 1aca (Compound 24), lace (Compound 27), 1ahe (Compound 44) or 1aje (Compound 62) and then with MPP+ (2 mM) or rotenone (2 µM) for 24 hours. Cell viability in the case of being treated with each compound is illustrated in FIGS. 4 and 5.

alpha-synuclein = experiment: Alpha-synuclein aggregation (phosphorylation) inhibition, Western blotting; type: cell-based; details: SH-SY5Y, 10 µM compound then rotenone
Description: When rotenone is administered to nerve cells, phosphorylation, namely aggregation of alpha-synuclein occurs. Phosphorylation, aggregation of alpha-synuclein can be observed and quantified through Western blotting.
Specifically, the SH-SY5Y cell line was treated with Compound 1aaa (Compound 1, 10 µM) and then with rotenone. Thereafter, Western blotting was performed to measure the expression levels of alpha-synuclein and phosphorylated alpha-synuclein, and the results are illustrated in FIG. 6.

Nrf-2 = Nrf-2 induction, nuclear fraction Western blotting; type: cell-based; details: SH-SY5Y, 10 µM compound for 24 hours
Description: When oxidative stress caused by reactive oxygen species increases in cells, the synthesis of antioxidants increases in response to this. One of the transcription factors mediating this antioxidant response is Nrf-2. As the transcription factor Nrf-2 enters the nucleus and the expression of genes related to antioxidation increases, the antioxidant capacity of cells increases.
Specifically, the SH-SY5Y cell line was exposed to Compound 1aaa (Compound 1, 10 µM) for 24 hours and then the cells were taken. Thereafter, the nuclear fraction was extracted, then Western blotting was performed to analyze the amount of Nrf-2 in the nucleus, and the results are illustrated in FIG. 7.

[3] = Single acute toxicity evaluation 1 (1000 mg/kg oral); type: in vivo, ICR mice
Description: Acute toxicity properties after single administration of the compound of the present invention were evaluated in an animal model.

[4] = tested on: substantia nigra dopaminergic neurons; experiment: Inhibition of dopaminergic nerve cell death in MPTP animal model of Parkinson's disease (tyrosine hydroxylase immunostaining); type: in vivo, C57B16/J mice; details: for survival rate of dopaminergic neurons, of that in the control group: 1 week before and after MPTP
Description: The dopaminergic neuronal cell protecting effect of the compound of the present invention was evaluated in an animal model of Parkinson’s disease. The animal model used was 7-week-old C57B16/J mice (23 to 25 g), to which MPTP (15 mg/kg) was administered 4 times at 1.5 hour intervals. For 1 to 2 days after administration, behavior was noticeably slowed and gradually recovered. In 1 week after MPTP administration, behavior was almost normalized to a level similar to that of normal mice.
In order to evaluate the efficacy of the compounds of the present invention, Compounds 1aaa (Compound 1), lace (Compound 27), 1ahe (Compound 44) and 1aje (Compound 62) were each administered at a dose of 5 mg/kg for 1 week, then MPTP (15 mg/kg x 4 times) was injected. These compounds were additionally administered for 1 week, and then dopamine innervation in the substantia nigra region was analyzed through immunostaining.
Specifically, selegiline, 1aaa, lace, 1ahe, 1aje, and apocynin were administered at a dose of 5 mg/kg for 7 days, then MPTP (15 mg/kg x 4 times) was administered to induce damage to dopaminergic neurons. After 7 days of additional administration of the compounds at the same dose, the animals were sacrificed. Immunostaining was performed using tyrosine hydroxylase antibody to measure the survival rate of substantia nigra dopaminergic neurons. After immunostaining, the number of surviving dopaminergic neurons was analyzed. The results are illustrated in FIG. 8.
In order to evaluate the efficacy of the compounds of the present invention, Compounds 1abv (Compound 22), 1abw (Compound 23), and 1ahs (Compound 52) were each intraperitoneally administered at a dose of 5 mg/kg for 1 week or orally administered at a dose of 50 mg/kg, then MPTP (15 mg/kg x 4 times) was injected. These compounds were additionally administered for 1 week, and then dopamine innervation in the substantia nigra region was analyzed through immunostaining. The results are illustrated in FIG. 9.
(§1) In order to evaluate the dopaminergic neuroprotective effect of the compounds of the present invention, Compounds 1aja (Compound 59) and 1abk (Compound 17) were each intraperitoneally administered at a dose of 5 mg/kg for 1 week, then MPTP (15 mg/kg x 4 times) was injected. These compounds were additionally administered for 1 week. After immunostaining using brain slices from each group, surviving dopaminergic neurons were photographed under a microscope and analyzed. The results are illustrated in FIG. 10.
as §1, with “1ajs” for “1aja”, “63), 1ajy (Compound 67),” for “59)”, “1aqj” for “1abk”, “85)” for “17)”, “11.” for “10.”

MPTP-administered mice = experiment: Behavioral activity: beam test and challenge beam test in MPTP mice; type: in vivo; details: intraperitoneal 5 mg/kg
Description: In order to evaluate the behavioral activation by the compounds of the present invention, Compounds lace (Compound 27), 1ahe (Compound 44), and 1abv (Compound 22) were each intraperitoneally administered at a dose of 5 mg/kg for 1 week, then MPTP (15 mg/kg x 4 times) was injected. These compounds were additionally administered for 1 week. A beam test and a challenge beam test were conducted 1 day before and 2 days after MPTP administration, respectively. The results are illustrated in FIG. 12.
In order to evaluate the behavioral activation by the compounds of the present invention, Compounds 1ajs (Compound 63), 1ajy (Compound 67), and 1abw (Compound 23) were each intraperitoneally administered at a dose of 5 mg/kg for 1 week, then MPTP (15 mg/kg x 4 times) was injected. These compounds were additionally administered for 1 week. A beam test and a challenge beam test were conducted 2 days after MPTP administration. The results are illustrated in FIG. 13.

[5] = Single acute toxicity evaluation 2 (2000 mg/kg oral); type: in vivo, ICR mice
Description: Acute toxicity properties after single administration of the compounds of the present invention were evaluated in an animal model.

[6] = Evaluation 2: intraperitoneal 5 mg/kg or oral 50 mg/kg
[7] = Evaluation 1: beam test and challenge beam test
[8] = Evaluation 2: beam test, 2 days after MPTP

For CN1C(=[Se])N(c2ccccc2)C(=O)C1=Cc1ccc(O)cc1O [Compound 1aaa], the “inhibition of increased generation of reactive oxygen species” value (SH-SY5Y cell line [1]) was “effectively inhibits”, the “cell viability / inhibition of cell death” value (from here on “cell viability / inhibition”) (SH-SY5Y cell line [2]) was “significantly inhibit cell death” and the “phosphorylation of alpha-synuclein by rotenone” value (alpha-synuclein) was “significantly reduced”. The “amount of Nrf-2 in the nucleus, increase” value (Nrf-2) was “about 1.5 times”, the autopsy report findings [3] was “no specific findings” and the organ weight [3] was “no change in organ weight”. For the same compound, the “change in body weight” value ([3]; day 0) was 100, the “change in body weight” value ([3]; day 1) was 98.06 and the “change in body weight” value ([3]; day 2) was 101.29. For the same compound, the “change in body weight” value ([3]; day 3) was 104.85, the “change in body weight” value ([3]; day 5) was 106.47 and the “change in body weight” value ([3]; day 7) was 109.39. For the same compound, the acute toxicity phenomenon ([3]; observed for 1 week) was “a specific acute toxicity phenomenon was not observed”.

For Cc1ccc(N2C(=O)C(=Cc3ccc(NCCOCCO)cc3)N(C)C2=[Se])cc1 [Compound 1abv], the “survival rate of dopaminergic neurons, of that in the control group” value (from here on “survival rate of dopaminergic neurons”) [4, 6] was 67.8%, the “reduction of time for mice to reach the home cage compared to MPTP administration group” value (from here on “reduction of time for mice”) (MPTP-administered mice; [7]) was at least 50% and the “change in body weight” value ([5]; day 0) was 100. For the same compound, the “change in body weight” value ([5]; day 2) was 99.0, the “change in body weight” value ([5]; day 4) was 100.0 and the “change in body weight” value ([5]; day 8) was 102.5. The “change in body weight” value ([5]; day 10) was 103.4 and the “change in body weight” value ([5]; day 14) was 105.0.

In the case of Cc1ccc(N2C(=O)C(=Cc3ccc(NCCN4CCOCC4)cc3)N(C)C2=[Se])cc1 [Compound 1abw], the “survival rate of dopaminergic neurons” value [4, 6] is reported as 72.3% and the “reduction of time for mice” value (MPTP-administered mice; [8]) is reported as “about 50%”.

In the case of CCc1ccc(N2C(=O)C(=Cc3ccc(O)cc3O)N(C)C2=[Se])cc1 [Compound 1aca], the “cell viability / inhibition” value (SH-SY5Y cell line [2]) is reported as “significantly inhibit cell death”.

With CN1C(=[Se])N(CCc2ccccc2)C(=O)C1=Cc1cc(O)cc(O)c1 [Compound 1ahe] the “cell viability / inhibition” value (SH-SY5Y cell line [2]) was “significantly inhibit cell death”, the “change in body weight” value ([5]; day 0) was 100 and the “change in body weight” value ([5]; day 2) was 98.6. The “change in body weight” value ([5]; day 4) was 100.9, the “change in body weight” value ([5]; day 8) was 104.2 and the “change in body weight” value ([5]; day 10) was 105.5. For the same compound, the “change in body weight” value ([5]; day 14) was 106.0.

With CCCCCCN1C(=O)C(=Cc2cc(O)cc(O)c2)N(C)C1=[Se] [Compound 1aje] the “cell viability / inhibition” value (SH-SY5Y cell line [2]) was “significantly inhibit cell death”.

With CCCCCCN1C(=O)C(=Cc2ccc(N3CCOCC3)cc2)N(C)C1=[Se] [Compound 1ajs] the “reduction of time for mice” value (MPTP-administered mice; [8]) was “about 50%”, the “change in body weight” value ([5]; day 0) was 100 and the “change in body weight” value ([5]; day 2) was 94.3. The “change in body weight” value ([5]; day 4) was 91.9, the “change in body weight” value ([5]; day 8) was 96.7 and the “change in body weight” value ([5]; day 10) was 101.6. The “change in body weight” value ([5]; day 14) was 99.4.

For CCCCCCN1C(=O)C(=Cc2ccc(NCCOCCF)cc2)N(C)C1=[Se] [Compound 1ajy], the “survival rate of dopaminergic neurons” value ([4]; Evaluations 3 and 4: intraperitoneal 5 mg/kg) was 50.6% and the “reduction of time for mice” value (MPTP-administered mice; [8]) was “about 50%”.

In the case of CCc1ccc(N2C(=O)C(=Cc3cc(O)cc(O)c3)N(C)C2=[Se])cc1 [lace], the “cell viability / inhibition” value (SH-SY5Y cell line [2]) is reported as “significantly inhibit cell death”, the “survival rate of substantia nigra dopaminergic neurons, of that in the control group” value ([4]; Evaluation 1: 5 mg/kg for 7 days, MPTP 15 mg/kg x 4, 7 further days) is reported as 79.6% and the “reduction of time for mice” value (MPTP-administered mice; [7]) is reported as at least 50%.

Source: US20230286956A1 (DUKSUNG WOMEN'S UNIVERSITY INDUSTRY-ACADEMIC COOPERATION …, priority 2020, published 2023)
